Assay [1] deals with endotoxin-treated rabbits. It is filed as in vivo, rabbit.
Assay [2] relates to citrated human plasma. The experiment in a line: Activated partial thromboplastin time (APTT) plasma clotting assay. Format: biochemical. The method, then:
(§1) The inhibitory effect on plasma coagulation was evaluated in the thrombin time (TT), activated partial thromboplastin time (APTT) and prothrombin time (PT) assays by using citrated human plasma as substrate [Bagdy, D. et. al.: Thromb. Haemostas. 67, 325 (1992)]. The TT assay measures the inhibition of a single step, the coagulation of fibrinogen on the action of exogenous thrombin (final concentration 2.5 NIH U/ml). Clotting of plasma in the APTT and PT assays was induced by recalcification. Endogenous thrombin generated could theoretically be present at a final concentration as high as 50 NIH U/ml (APTT, PT). These assays detect the sum of inhibitory actions on fibrin formation and thrombin generation, which includes several proteolytic reactions mediated by either thrombin or other enzymes, e.g. fXa. Anticlotting activity is expressed in CT2, which is the concentration (nM) required to double the clotting time.

The target of the next assay is clot-bound factor Xa (Homo sapiens, UniProt P00742). The assay is described as follows: Enzyme inhibition in platelet-rich plasma clots, chromogenic substrate Moc-D-Chg-Gly-Arg-pNA. Format: biochemical. As for the experimental part:
(§2) Tos-Gly-Pro-Arg-pNA (S1) for thrombin and Moc-D-Chg-Gly-Arg-pNA (S2) for factor Xa, as published (Bajusz, S. et al.: PCT Pub. No. WO97/46576) briefly. The assays were carried out at room temperature in glass tubes and 96-well microtiter plates.
(§3) Solutions, (i) Buffer A: 0.1 M sodium phosphate/0.05 M NaCl (pH 8.5). (ii) Inhibitors: 0.1, 1.0 and 10 mg/ml solutions in buffer A containing 0.02% human albumin. (iii) Substrates: 1 mM of S1 and 2 mM of S2 in distilled water.
(§4) (b) Preparation of plasma clots. Platelet rich plasma samples (200 μl) placed in glass tubes were incubated at room temperature with 80 μl 40 mM CaCl2 for 60 min. The clots were washed with 2 ml aliquots of saline (0.9% NaCl) with gentle agitation to remove unbound enzymes In case of successful washing the optical density of the reaction mixture of wash and S1 is less than 5% of the control. The plasma clot thus obtained was kept under saline in the tube until use.
(§5) (c) Assessment of the enzyme inhibition in the clots. After removal of saline, the plasma clot was incubated at 37° C. with 400 μl inhibitor (or buffer A as negative control) for 5 min. and with 100 μl substrate S1 or S3 for 30 min., then the reaction was stopped with 100 μl 50% acetic acid. 150 μl portions of the reaction mixtures were placed in the wells of a microtiter plate and read at 405 nm (ELISA READER 800, Bio-Tek Instruments Inc. Winooski, Vt., USA). IC50 values were generated from the extinction data graphically.

The next assay addresses clot-bound thrombin (Homo sapiens, UniProt P00734). The assay is described as follows: Enzyme inhibition in platelet-rich plasma clots, chromogenic substrate Tos-Gly-Pro-Arg-pNA. The conditions noted are these: for IC50: clot-bound thrombin, platelet-rich plasma clot. Format: biochemical. The method, then:
as §2, §3, §4, §5

In assay [3] the test system is citrated human plasma. The experiment in a line: Prothrombin time (PT) plasma clotting assay. Format: biochemical. As for the experimental part: as §1
In the next assay the target is urokinase (UK) (Homo sapiens, UniProt P00749). The assay is described as follows: Fibrin plate assay, urokinase. It is filed as biochemical. The conditions noted are these: reduction of lysed area to 50% of control, urokinase, read-out: LA50 UK. From the text: (§6) Inhibitory effects of the compounds of the invention on plasmin (PL) and plasmin generation by plasminogen (Plogen) activators, such as tissue plasminogen activator (tPA), and urokinase (UK) were examined by the fibrin plate assay. (See e.g., Bagdy, D., Barabás, E., Bajusz, S., and Széll, E., Thromb. Haemostas., 67:325-330 (1992); Barabás, E. Szell, E. and Bajusz, S, Blood Coagulation and Fibrinolysis, 4: 243 (1993)) The results are shown in Table 1, Column C. With a few exceptions the analogues are somewhat more inhibitory than Efegatran against the three fibrinolytic enzymes.

Assay [4] addresses tissue plasminogen activator (tPA) (Homo sapiens, UniProt P00750). The experiment in a line: Fibrin plate assay, tissue plasminogen activator. The conditions noted are these: reduction of lysed area to 50% of control, read-out: LA50 tPA. Format: biochemical.
Description: as §6

In a further assay the target is plasmin (PL) (Homo sapiens, UniProt P00747). The assay is described as follows: Fibrin plate assay, plasmin. The conditions noted are these: reduction of lysed area to 50% of control, read-out: LA50 PL. Format: biochemical.
Description: as §6

The subject of assay [5] is citrated human plasma (exogenous thrombin). The experiment in a line: Thrombin time (TT) plasma clotting assay. It is filed as biochemical. The conditions noted are these: thrombin 2.5 NIH U/ml. The method, then:
as §1

A further assay has as its system LPS-treated rats. The assay is described as follows: Survival in a rat model for disseminated intravascular coagulation. The conditions noted are these: for Effectiveness on survival compared with reference C (in words): LPS-treated rats; for Survival rate %: rats, 30 mg/kg LPS i.v. Format: in vivo.
[6] abbreviates: endotoxin-treated rabbits, 0.5 mg/kg/h infusion.
The mark [7] stands for this setting: endotoxin-treated rabbits, 50 U/kg/h.
The mark [8] stands for this setting: endotoxin-treated rabbits, 100 U/kg/h.
The mark [9] stands for this setting: 0.75 mg/kg bolus + infusion, 0 hours.
Setting [10] is: 0.75 mg/kg bolus + infusion, 4 hours.
[11] abbreviates: 0.75 mg/kg bolus + infusion, 5 hours.
Setting [12] is: 0.75 mg/kg bolus + infusion, 6 hours.
Where [13] appears, read: 0.75 mg/kg bolus + infusion, 7 hours.
[14] abbreviates: 0.75 mg/kg bolus + infusion, 8 hours.
Where [15] appears, read: 1.5 mg/kg bolus + infusion, 0 hours.
[16] abbreviates: 1.5 mg/kg bolus + infusion, 4 hours.
Where [17] appears, read: 1.5 mg/kg bolus + infusion, 5 hours.
The mark [18] stands for this setting: 1.5 mg/kg bolus + infusion, 6 hours.
Setting [19] is: 1.5 mg/kg bolus + infusion, 7 hours.
The mark [20] stands for this setting: 1.5 mg/kg bolus + infusion, 8 hours.

Where two headings read alike, the source gives them in different places. Non-standard residues stand in square brackets, D forms with d. Residues, ends and D or L forms follow the SMILES beside them. dNMeChg = CN[C@@H](C(=O)O)C1CCCCC1; Aze = O=C(O)[C@@H]1CCN1

Sequence of clot-bound factor Xa (P00742 235-488 limits assumed): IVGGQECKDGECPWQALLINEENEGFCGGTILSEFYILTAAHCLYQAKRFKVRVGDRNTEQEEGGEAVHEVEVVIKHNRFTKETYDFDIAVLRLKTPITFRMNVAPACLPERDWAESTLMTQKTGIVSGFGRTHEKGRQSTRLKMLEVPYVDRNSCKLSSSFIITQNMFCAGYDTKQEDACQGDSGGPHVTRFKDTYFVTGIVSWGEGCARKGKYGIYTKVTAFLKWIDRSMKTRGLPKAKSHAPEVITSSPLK
Sequence of clot-bound factor Xa (P00742 41-179 limits assumed): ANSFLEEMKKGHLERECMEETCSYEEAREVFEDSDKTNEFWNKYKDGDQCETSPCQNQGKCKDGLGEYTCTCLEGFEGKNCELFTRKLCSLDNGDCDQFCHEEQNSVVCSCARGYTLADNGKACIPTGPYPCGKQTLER
Sequence of tissue plasminogen activator (tPA) (P00750 36-562, species assumed): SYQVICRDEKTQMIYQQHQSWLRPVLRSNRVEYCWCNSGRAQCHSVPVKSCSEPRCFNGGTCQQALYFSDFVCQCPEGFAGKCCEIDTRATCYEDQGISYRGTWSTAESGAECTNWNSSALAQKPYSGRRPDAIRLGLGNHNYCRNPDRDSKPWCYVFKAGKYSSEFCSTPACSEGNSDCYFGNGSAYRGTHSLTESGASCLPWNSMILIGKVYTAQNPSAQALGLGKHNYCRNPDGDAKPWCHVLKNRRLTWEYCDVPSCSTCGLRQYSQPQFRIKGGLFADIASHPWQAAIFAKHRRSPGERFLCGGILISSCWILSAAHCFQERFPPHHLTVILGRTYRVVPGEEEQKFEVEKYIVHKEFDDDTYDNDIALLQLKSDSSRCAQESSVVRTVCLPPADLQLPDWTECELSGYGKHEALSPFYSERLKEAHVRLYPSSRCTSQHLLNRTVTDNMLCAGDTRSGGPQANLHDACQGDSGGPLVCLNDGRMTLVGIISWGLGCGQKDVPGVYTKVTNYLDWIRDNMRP
Sequence of plasmin (PL) (P00747 581-810 limits assumed, species assumed): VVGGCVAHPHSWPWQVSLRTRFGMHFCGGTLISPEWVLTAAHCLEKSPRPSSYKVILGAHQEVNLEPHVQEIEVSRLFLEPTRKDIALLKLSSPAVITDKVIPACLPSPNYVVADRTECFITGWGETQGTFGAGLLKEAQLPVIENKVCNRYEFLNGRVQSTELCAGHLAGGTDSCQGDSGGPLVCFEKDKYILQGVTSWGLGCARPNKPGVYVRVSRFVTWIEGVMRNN
Sequence of plasmin (PL) (P00747 97-580 limits assumed, species assumed): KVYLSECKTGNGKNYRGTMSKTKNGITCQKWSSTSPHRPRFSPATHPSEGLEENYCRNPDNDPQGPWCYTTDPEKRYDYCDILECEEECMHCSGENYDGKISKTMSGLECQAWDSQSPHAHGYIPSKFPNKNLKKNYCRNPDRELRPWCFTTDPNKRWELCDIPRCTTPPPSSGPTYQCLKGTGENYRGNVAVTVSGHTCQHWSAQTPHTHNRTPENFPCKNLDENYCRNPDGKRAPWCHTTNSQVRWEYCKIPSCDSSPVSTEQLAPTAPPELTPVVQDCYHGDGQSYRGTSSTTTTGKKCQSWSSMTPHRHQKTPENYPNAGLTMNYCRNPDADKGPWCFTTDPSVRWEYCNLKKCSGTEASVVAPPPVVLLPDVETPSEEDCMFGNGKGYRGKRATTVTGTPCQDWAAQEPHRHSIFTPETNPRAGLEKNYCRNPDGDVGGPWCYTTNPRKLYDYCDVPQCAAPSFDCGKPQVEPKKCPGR

Turning to `N=C(N)NCCC[C@@H](C=O)NC(=O)[C@@H]1CCCN1C(=O)C(O)CCc1ccccc1` (stereo partly drawn) [Compound C3, hPla-Pro-Arg-H], in [1] (setting [6]), the “Lethality %, 2 hrs” value was 6%; the “Lethality no. died/treated animals, 2 hrs” value is reported as 1/18; the “Lethality %, 4 hrs” value is listed as 56%; the “Lethality no. died/treated animals, 4 hrs” value is recorded as 10/18. The Increase in lethality in assay [1] (endotoxin-treated rabbits, relative to endotoxin alone) was roughly 1.8 fold.

For the molecule heparin, in assay [1] (setting [7]), the “Lethality %, 2 hrs” value is recorded as 0%; the “Lethality no. died/treated animals, 2 hrs” value is 0/17; the “Lethality %, 4 hrs” value was 35%; the “Lethality no. died/treated animals, 4 hrs” value is on record as 6/17. Also, in assay [1] (setting [8]), the “Lethality %, 2 hrs” value is listed as 0%; the “Lethality no. died/treated animals, 2 hrs” value is on record as 0/19; the “Lethality %, 4 hrs” value came out at 37%; the “Lethality no. died/treated animals, 4 hrs” value was 7/19.

Consider `N=C(N)NCCC[C@@H](C=O)NC(=O)[C@@H]1CCCN1C(=O)[C@H](O)C1CCCCCC1` [Compound C1, reference compound], for which, in the assay with citrated human plasma [2], the “CT2 APTT (concentration required for doubling the clotting time)” value (“CT2 APTT” for short) worked out at 333 nM. Moreover, the IC50 is 0.2 µM against clot-bound factor Xa; 0.524 µM against clot-bound thrombin; 120 µM on urokinase (UK); 74 µM in assay [4]; 83 µM at plasmin (PL). The “CT2 PT (concentration required for doubling the clotting time)” value (“CT2 PT” for short) with citrated human plasma [3] came out at 1254 nM. For the same molecule, the “Effect on lethality of endotoxin-treated rabbits (in words)” value in [1] (compared with endotoxin alone) is “no effect on lethality”. For the same molecule, the “Lethality %, 2 hrs” value in assay [1] (setting [6]) was determined as 0%. Moreover, in assay [1] (setting [6]), the “Lethality no. died/treated animals, 2 hrs” value is recorded as 0/16. For the same molecule, in assay [1] (setting [6]), the “Lethality %, 4 hrs” value worked out at 31%. Further, the “Lethality no. died/treated animals, 4 hrs” value in [1] (setting [6]) is reported as 5/16. Further, the “CT2 TT (concentration required for doubling the clotting time)” value (shortened to “CT2 TT”) in assay [5] was 120 nM.

On to `CN[C@H](CC1CCCCCC1)C(=O)N1CCC[C@H]1C(=O)N[C@H](C=O)CCCNC(=N)N` [Compound 2, N-methyl-D-cycloheptylalanyl-L-prolyl-L-arginine aldehyde], for which the “CT2 APTT” value in the assay on citrated human plasma [2] worked out at 315 nM. The IC50 amounted to 0.102 µM against clot-bound factor Xa; 0.093 µM against clot-bound thrombin; 18 µM at urokinase (UK); 14 µM in [4]; 16 µM on plasmin (PL). In addition, the “Inhibition of clot-bound thrombin compared with Efegatran (in words)” value on clot-bound thrombin was “surpass Efegatran”. Moreover, the “CT2 PT” value with citrated human plasma [3] turned out to be 876 nM. Further, the “Effectiveness on survival compared with reference C (in words)” value in the assay with LPS-treated rats is reported as “more effective than reference C”. Also, the Survival rate % with LPS-treated rats (setting [9]) worked out at 100%; in the assay on LPS-treated rats (setting [10]) it was 86%; in the assay on LPS-treated rats (setting [11]), 78%; in the assay on LPS-treated rats (setting [12]), 57%; in the assay with LPS-treated rats (setting [13]), 57%; in the assay on LPS-treated rats (setting [14]), 50%. The Survival rate % with LPS-treated rats (1.0 mg/kg bolus + infusion, 0 hours) was found to be 100%; in the assay with LPS-treated rats (1.0 mg/kg bolus + infusion, 4 hours), 100%; in the assay with LPS-treated rats (1.0 mg/kg bolus + infusion, 5 hours), 100%; with LPS-treated rats (1.0 mg/kg bolus + infusion, 6 hours), 100%; in the assay with LPS-treated rats (1.0 mg/kg bolus + infusion, 7 hours), 90%; in the assay with LPS-treated rats (1.0 mg/kg bolus + infusion, 8 hours) it was 90%. Besides, the Survival rate % in the assay on LPS-treated rats (setting [15]), with LPS-treated rats (setting [16]), in the assay on LPS-treated rats (setting [17]), with LPS-treated rats (setting [18]), in the assay on LPS-treated rats (setting [19]) and in the assay with LPS-treated rats (setting [20]) was 100% in each case. Also, the “CT2 TT” value in [5] is given as 118 nM.

Turning to `CN[C@@H](C(=O)N1CC[C@H]1C(=O)N[C@H](C=O)CCCNC(=N)N)C1CCCCC1` [Compound 4, N-methyl-D-cyclohexylglycyl-L-azetidine-2-carbonyl-L-arginine aldehyde] (H-[dNMeChg]-[Aze]-Arg-aldehyde), in the assay on citrated human plasma [2], the “CT2 APTT” value was determined as 677 nM. Besides, the IC50 came to 0.457 µM against clot-bound factor Xa; 0.245 µM at clot-bound thrombin; 16 µM on urokinase (UK); 12 µM in assay [4]; 32 µM at plasmin (PL). Further, at clot-bound thrombin, the “Inhibition of clot-bound thrombin compared with Efegatran (in words)” value is “surpass Efegatran”. Besides, in the assay with citrated human plasma [3], the “CT2 PT” value is reported as 2921 nM. Moreover, in the assay on LPS-treated rats, the “Effectiveness on survival compared with reference C (in words)” value is on record as “more effective than reference C”. In addition, the Survival rate % in the assay on LPS-treated rats (0.5 mg/kg bolus + infusion, 0 hours) turned out to be 100%; in the assay with LPS-treated rats (0.5 mg/kg bolus + infusion, 4 hours) it was 93%; in the assay with LPS-treated rats (0.5 mg/kg bolus + infusion, 5 hours) it was 87%; with LPS-treated rats (0.5 mg/kg bolus + infusion, 6 hours), 87%; with LPS-treated rats (0.5 mg/kg bolus + infusion, 7 hours), 87%; in the assay with LPS-treated rats (0.5 mg/kg bolus + infusion, 8 hours) it was 80%. The Survival rate % in the assay with LPS-treated rats (setting [9]) is recorded as 100%; in the assay with LPS-treated rats (setting [10]), 100%; in the assay on LPS-treated rats (setting [11]), 100%; with LPS-treated rats (setting [12]) it was 100%; in the assay with LPS-treated rats (setting [13]) it was 92%; in the assay on LPS-treated rats (setting [14]), 85%. Besides, the Survival rate % with LPS-treated rats (setting [15]), in the assay on LPS-treated rats (setting [16]), with LPS-treated rats (setting [17]), in the assay on LPS-treated rats (setting [18]), in the assay on LPS-treated rats (setting [19]) and with LPS-treated rats (setting [20]) was 100% throughout. In addition, the “CT2 TT” value in assay [5] stood at 101 nM.

These data come from patent US20050070480A1, “Peptide arginals and methods for treating disseminated intravascular coagulation” (priority 2001, published 2005).
